Experimental data: the NIST ThermoML archive (doi:10.1016/j.fluid.2013.05.001)
Where “and” joins values, the source holds several entries; their conditions need not be identical. Identical values can stand only once.

How the values were obtained:
[1] = 298.15 K, 85.9 kPa, Liquid; for viscosity: Capillary tube (Ostwald / Ubbelohde) method; for mass density: Vibrating tube method
[2] = refractive index (Na D-line) (dimensionless); conditions: 298.15 K; 85.9 kPa; Liquid; Standard Abbe refractometry
[3] = mn = molality of the nth substance listed, in mol/kg; conditions: 85.9 kPa, Liquid, Vibrating tube method

C1COCCO1 [1,4-dioxane]
Conditions | mass density [kg/m3] | refractive index | viscosity [mPa·s]
[1] | 1027.93 | – | 1.158
[2] | – | 1.4188 | –

CC(=O)N(C)C [N,N-dimethylethanamide]
Conditions | mass density [kg/m3] | refractive index | viscosity [mPa·s]
[1] | 936.57 | – | 0.961
[2] | – | 1.436 | –

C[S+](C)[O-] [dimethyl sulfoxide]
Conditions | mass density [kg/m3] | refractive index | viscosity [mPa·s]
[1] | 1095.29 | – | 1.867
[2] | – | 1.4762 | –

CC(=O)Nc1ccc(OC(=O)c2ccccc2O)cc1 [salophen] + C1CCOC1
mass density, [3]
Conditions | m1 = 0.0103 | m1 = 0.0316 | m1 = 0.0496 | m1 = 0.0699 | m1 = 0.0908 | m1 = 0.1099 | m1 = 0.1293 | m1 = 0.1498 | m1 = 0.1704
288.15 K | 893.79 kg/m3 and 882.94 kg/m3 | 884.82 kg/m3 and 895.65 kg/m3 | 886.39 kg/m3 and 897.21 kg/m3 | 888.13 kg/m3 and 898.95 kg/m3 | 889.9 kg/m3 and 900.71 kg/m3 | 891.51 kg/m3 and 902.31 kg/m3 | 893.11 kg/m3 and 903.88 kg/m3 | 894.79 kg/m3 and 905.55 kg/m3 | 896.46 kg/m3 and 907.21 kg/m3
308.15 K | 871.92 kg/m3 | 873.82 kg/m3 | 875.41 kg/m3 | 877.17 kg/m3 | 878.97 kg/m3 | 880.59 kg/m3 | 882.21 kg/m3 | 883.9 kg/m3 | 885.6 kg/m3
318.15 K | 860.78 kg/m3 | 862.7 kg/m3 | 864.3 kg/m3 | 866.08 kg/m3 | 867.89 kg/m3 | 869.54 kg/m3 | 871.17 kg/m3 | 872.89 kg/m3 | 874.58 kg/m3

CC(=O)Nc1ccc(OC(=O)c2ccccc2O)cc1 [salophen] + C1COCCO1
mass density, [3]
Conditions | m1 = 0.0106 | m1 = 0.0284 | m1 = 0.0495 | m1 = 0.0693 | m1 = 0.0855 | m1 = 0.1104 | m1 = 0.1313 | m1 = 0.1482 | m1 = 0.1707
288.15 K | 1039.84 kg/m3 and 1028.52 kg/m3 | 1029.51 kg/m3 and 1040.81 kg/m3 | 1030.66 kg/m3 and 1041.93 kg/m3 | 1031.72 kg/m3 and 1042.96 kg/m3 | 1032.57 kg/m3 and 1043.79 kg/m3 | 1033.86 kg/m3 and 1045.04 kg/m3 | 1034.92 kg/m3 and 1046.05 kg/m3 | 1035.78 kg/m3 and 1046.86 kg/m3 | 1036.89 kg/m3 and 1047.91 kg/m3
308.15 K | 1017.22 kg/m3 | 1018.23 kg/m3 | 1019.39 kg/m3 | 1020.48 kg/m3 | 1021.35 kg/m3 | 1022.68 kg/m3 | 1023.75 kg/m3 | 1024.62 kg/m3 | 1025.75 kg/m3
318.15 K | 1005.88 kg/m3 | 1006.9 kg/m3 | 1008.09 kg/m3 | 1009.19 kg/m3 | 1010.08 kg/m3 | 1011.41 kg/m3 | 1012.5 kg/m3 | 1013.37 kg/m3 | 1014.52 kg/m3

CC(=O)Nc1ccc(OC(=O)c2ccccc2O)cc1 [salophen] + CC(=O)N(C)C
mass density, [3]
Conditions | m1 = 0.0106 | m1 = 0.0323 | m1 = 0.0497 | m1 = 0.0704 | m1 = 0.0899 | m1 = 0.1092 | m1 = 0.129 | m1 = 0.1492 | m1 = 0.1742
288.15 K | 946.52 kg/m3 and 937.32 kg/m3 | 938.87 kg/m3 and 948.07 kg/m3 | 940.11 kg/m3 and 949.32 kg/m3 | 941.6 kg/m3 and 950.78 kg/m3 | 942.99 kg/m3 and 952.18 kg/m3 | 944.36 kg/m3 and 953.53 kg/m3 | 945.78 kg/m3 and 954.93 kg/m3 | 947.22 kg/m3 and 956.35 kg/m3 | 949.07 kg/m3 and 958.13 kg/m3
308.15 K | 928.08 kg/m3 | 929.62 kg/m3 | 930.86 kg/m3 | 932.36 kg/m3 | 933.77 kg/m3 | 935.17 kg/m3 | 936.59 kg/m3 | 938.07 kg/m3 | 939.94 kg/m3
318.15 K | 918.85 kg/m3 | 920.4 kg/m3 | 921.65 kg/m3 | 923.15 kg/m3 | 924.58 kg/m3 | 925.99 kg/m3 | 927.42 kg/m3 | 928.91 kg/m3 | 930.75 kg/m3

CC(=O)Nc1ccc(OC(=O)c2ccccc2O)cc1 [salophen] + C[S+](C)[O-]
mass density, [3]
Conditions | m1 = 0.0099 | m1 = 0.0307 | m1 = 0.0493 | m1 = 0.07 | m1 = 0.0911 | m1 = 0.1086 | m1 = 0.1311 | m1 = 0.1483 | m1 = 0.1717
288.15 K | 1105.64 kg/m3 and 1095.61 kg/m3 | 1096.3 kg/m3 and 1106.33 kg/m3 | 1096.92 kg/m3 and 1106.94 kg/m3 | 1097.62 kg/m3 and 1107.62 kg/m3 | 1098.35 kg/m3 and 1108.33 kg/m3 | 1098.97 kg/m3 and 1108.91 kg/m3 | 1099.71 kg/m3 and 1109.66 kg/m3 | 1100.31 kg/m3 and 1110.22 kg/m3 | 1101.12 kg/m3 and 1111 kg/m3
308.15 K | 1085.58 kg/m3 | 1086.29 kg/m3 | 1086.93 kg/m3 | 1087.63 kg/m3 | 1088.38 kg/m3 | 1089 kg/m3 | 1089.77 kg/m3 | 1090.36 kg/m3 | 1091.18 kg/m3
318.15 K | 1075.56 kg/m3 | 1076.29 kg/m3 | 1076.95 kg/m3 | 1077.68 kg/m3 | 1078.44 kg/m3 | 1079.07 kg/m3 | 1079.87 kg/m3 | 1080.47 kg/m3 | 1081.32 kg/m3

C1CCOC1 [tetrahydrofuran]
Conditions | mass density [kg/m3] | refractive index | viscosity [mPa·s]
[1] | 882.02 | – | 0.448
[2] | – | 1.4047 | –
